Laboratory results from patent EP0352248A1, “Nucleoside derivatives” (priority 1988, dated 1990).

How the values were obtained:
Format in all cases: cell-based
[1] = test system: F5000 cells; experiment: Cellular toxicity, inhibition of cell multiplication, F5000 cells; details: F5000 cells (human embryo cells), conc. 100 µM, cell number after 48 h
Method: (§1) Test II Cellular toxicity
(§2) F5000 cells, which are human embryo cells, 1x10⁵ cells per plate, are incubated in Eagle's minimal essential medium, supplemented with Earle's salts, non-essential amino acids, 10 % fetal calf serum, 10 mM hepes, 70 mg/l penicillin and 100 mg/l streptomycin, in absence or presence of test compounds. The number of cells per plate is determined after 48 h. Cells incubated in the absence of test compounds underwent one cell division cycle. The results are given as % inhibition of cell multiplication when the concentration of the compound is 100 µM or 250 µM.

[2] = test system: H9 cells; experiment: Cellular toxicity, inhibition of cell multiplication, H9 cells; details: conc. 200 µM, cell number after 48 h
Method: as §1
H9 cells, 2x10⁷ cells per plate, are incubated in RPMI-1640 medium containing 10 % fetal calf serum, 70 mg/l penicillin, 100 mg/l streptomycin and 10 mM hepes, in absence or presence of test compounds. The number of cells per plate is determined after 48 h. Cells incubated in the absence of test compounds then underwent two cell division cycles.
as §2, with “The results are given as % inhibition of cell multiplication when the concentration of the compound is 100 µM or 250 µM.” left out

[3] = test system: HIV (HTLV-IIIB); experiment: Effect on HIV in H9 cells (frequency of HIV antigen containing cells, immunofluorescence); details: Human immunodeficiency virus 1; H9 cells exposed to HIV (HTLV-IIIB), 6-7 days; read-out: Concentration (µM) for 50 % inhibition (IC₅₀) of human immuno deficiency virus multiplication in cell culture
Method: Test I Effect of compounds of the formula I on HIV in H9 cells
Materials and methods: HIV infection of H9 cells
H9 cells, 10⁵ cells per well on a 24 well plate, suspended in 2 ml RPMI-medium containing 10 % fetal calf serum, 100 µg/ml penicillin, 10 µg/ml streptomycin sulfate and 2 µg/ml polybrene are exposed to HIV (HTLV-IIIB) and different concentrations of the test compounds. The plates are incubated at 37°C in 5 % CO₂ for 6-7 days. The contents in each well is then homogenized with a pipette and transferred to a centrifuge tube. After centrifugation for 10 min at 1500 rpm the supernatant is removed and the cell pellet is analyzed by fixing in methanol on glass plates. Human HIV positive serum diluted 1:80 or 1:160 is added and incubated for 30 min at 37°C. The plate is then washed with phosphate-buffered saline (PBS) containing Ca²⁺ and Mg²⁺. Sheep anti-human conjugate (FITC) is added and after a new incubation the plate is again washed with PBS. Contrast straining is done with Evans blue and after drying the frequency of HIV antigen containing cells is determined in a microscope.

## Nc1ccn(C2CC[C@H](CO)O2)c(=O)n1 (stereo partly drawn) [VSB 815, 1-(2,3-Dideoxy-alpha,beta-L-ribofuranosyl)-cytosine]
[1]
  % Inhibition F5000: 55 (100) %
[2]
  % Inhibition H9: 35 (200) %
[3]
  IC50: < 1 µM
